In general, Emax refers to the maximal effect, on the per cent scale that the assay sets.

This passage reports Emax results from patent US8349886B2, “Nitrogenated 5-membered heterocyclic compound” (Takeda Pharmaceutical Company Limited, priority 2008, dated 2013).

The experiment has as its target T1, GST-hLGK1 (human liver type GK) (Homo sapiens, UniProt P35557).
T1 construct: made in house; host or cells: Escherichia coli BL21 (Stratagene), plasmid pGEX6P-2/hLGK1
T1 sequence (P35557 1-464 isoform P35557-3): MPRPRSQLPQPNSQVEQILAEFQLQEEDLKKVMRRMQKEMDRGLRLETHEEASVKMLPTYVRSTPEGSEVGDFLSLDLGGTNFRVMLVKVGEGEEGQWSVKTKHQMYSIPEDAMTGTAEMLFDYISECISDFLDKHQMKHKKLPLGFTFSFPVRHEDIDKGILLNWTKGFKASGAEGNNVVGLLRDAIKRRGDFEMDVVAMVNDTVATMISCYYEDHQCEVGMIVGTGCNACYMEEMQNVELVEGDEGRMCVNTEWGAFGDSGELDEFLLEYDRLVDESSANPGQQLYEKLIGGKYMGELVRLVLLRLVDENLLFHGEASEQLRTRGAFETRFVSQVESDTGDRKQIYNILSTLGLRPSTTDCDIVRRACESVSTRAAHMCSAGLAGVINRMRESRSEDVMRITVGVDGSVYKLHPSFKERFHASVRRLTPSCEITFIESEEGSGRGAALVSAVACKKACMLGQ
The experiment is described as follows: Measurement of GK activation value (Mant-ATP/Mant-ADP capillary electrophoresis). It is filed as biochemical. The following applies: test compound 10 μmol/L; 5 mmol/L D-glucose; reaction rate as percentage of control group without test compound. The procedure:
A plasmid DNA used for expression of a protein (GST-hLGK1) having GST (Glutathione S-transferase) added to the amino terminal of human liver type GK in Escherichia coli was prepared as follows.
BL21 strain (Stratagene) transformed with pGEX6P-2/hLGK1 obtained in Reference Example 1A was cultured with shaking in a 200 ml Erlenmeyer flask containing LB medium (50 ml) containing 100 μg/ml ampicillin at 37° C. for 14 hr. The cultured broth (25 ml) was diluted with LB medium (225 ml) containing 100 μg/ml ampicillin, and cultured with shaking in a 1 L Erlenmeyer flask at 37° C. for 1 hr. The Erlenmeyer flask after culture was cooled on ice, 100 mM Isopropyl-Thio-β-D-Galactopyranoside (IPTG) (125 μL) was added (final concentration 50 μM), and the cells were cultured at 17° C. for 20 hr. The cultures broth was centrifuged, and the obtained cells were disrupted by ultrasonication, and the object protein (GST-hLGK1) was purified from the supernatant using Glutathione Sepharose 4B (Amersham Biosciences).
GK enzyme reactions were performed in 50 mmol/L HEPES pH7.4, 200 mmol/L KCl, 5 mmol/L MgCl2, 2 mmol/L DTT, containing 50 μmol/L 2′-(or-3′)-O—(N-methylanthraniloyl)adenosine 5′-triphosphate (Mant-ATP) (Jena Bioscience GmbH), 5 mmol/L D-glucose, 5% DMSO and 6 μg/mL GST-hLGK1 obtained in Reference Example 2A in a total volume 50 μL. The reactions were performed in 384 well black plates (Nalge Nunc International K.K.). Prior to the reaction, the enzyme and test compound were incubated for 10 min at 37° C., and 25 mM D-glucose solution (10 μL) was added to start the reaction. The final concentration of the test compound is 10 μmol/L. After the incubation for 60 min at 37° C., the reaction was quenched by adding 25 μL of a quenching solution (containing 200 mM HEPES (pH 7.4), 20 mM MgCl2, 200 mM EDTA, 0.03% Triton-X 100, 0.3% Coating 3 reagent (Caliper Life Sciences, Inc.)).
Mant-ATP (substrate, 2′-(or-3′)-O—(N-methylanthraniloyl)adenosine 5′-triphosphate) and Mant-ADP (reaction resultant product) were separated from each well after the reaction by a microchip type capillary electrophoresis apparatus 250 HTS (Caliper Life Sciences, Inc.). The reaction rate [(reaction resultant product peak height)/(reaction resultant product peak height+substrate peak height)×100(%)] was calculated from the ratio of the substrate peak height and reaction resultant product peak height obtained by fluorescence detection (excitation wavelength 355 nm, measurement wavelength 460 nm) and used as the index of GK activity.
As a control group, the reaction rate was calculated in the same manner as above without the test compounds. […]

The molecule `Cn1nc(C(CC2CCOCC2)c2ccc(-c3ncc(CO)s3)[nH]2)cc1S(C)(=O)=O` (stereo not shown) [Example 2, [2-(5-{1-[1-methyl-5-(methylsulfonyl)-1H-pyrazol-3-yl]-2-(tetrahydro-2H-pyran-4-yl)ethyl}-1H-pyrrol-2-yl)-1,3-thiazol-5-yl]methanol] gave an Emax at 10 µM of 138%.
Then `COc1ccnc2c1cnn2C(CC1CCOCC1)c1ccc(-c2ccc(C(O)C(C)(C)O)cn2)[nH]1` (stereo not shown) [Example 3, 1-(6-{5-[1-(4-methoxy-1H-pyrazolo[3,4-b]pyridin-1-yl)-2-(tetrahydro-2H-pyran-4-yl)ethyl]-1H-pyrrol-2-yl}pyridin-3-yl)-2-methylpropane-1,2-diol], with 124%.
Then `CC(C)(O)C(O)c1ccc(-c2ccc(C(CC3CCOCC3)n3ncc4c(S(=O)(=O)C5CC5)cccc43)[nH]2)nc1` (stereo not shown) [Example 4, 1-[6-(5-{1-[4-(cyclopropylsulfonyl)-1H-indazol-1-yl]-2-(tetrahydro-2H-pyran-4-yl)ethyl}-1H-pyrrol-2-yl)pyridin-3-yl]-2-methylpropane-1,2-diol], with 161%; and `COc1ccc2c(cnn2C(CC2CCOCC2)c2ccc(-c3ccc(C(O)C(C)(C)O)cn3)[nH]2)c1S(=O)(=O)C1CC1` (stereo not shown) [Example 5, 1-[6-(5-{1-[4-(cyclopropylsulfonyl)-5-methoxy-1H-indazol-1-yl]-2-(tetrahydro-2H-pyran-4-yl)ethyl}-1H-pyrrol-2-yl)pyridin-3-yl]-2-methylpropane-1,2-diol], with 162%.
